Results as given in patent US10065990B2, “Cyclic peptide compound, and preparation method, pharmaceutical composition and use thereof” (HANGZHOU GUANYU BIO-MEDICAL CO., LTD, priority 2013, dated 2018).
pIC50: −log10 of the molar value. Read-outs that look alike come from different tables or passages of the source.

Key:
HDAC1 = HDAC1 (Homo sapiens, UniProt Q13547); assay: HDAC biochemical activity measurement (fluorescent substrate deacetylation);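 also: fluorogenic acetyl-lysine substrate (20 µM) deacetylated by HDAC1, then developer releases fluorophore read at 360 nm excitation and 460 nm emission, inhibitor incubated 30 min at 37 °C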
Procedure: (§2) The chemical activity of the compound is determined according to the degree of deacetylation inhibition of the HDAC enzyme. This experiment measured the degree of deacetylation related to tumor proliferation and metastasis of HDAC1, HDAC2, HDAC3, HDAC8, HDAC11 five subtypes HDAC enzymes. After the substrate containing an acetylated lysine side chain and HDAC enzyme are labeled with a fluorescent label, the fluorescent substrate is de acetyl. The fluorescent labeled substrate is cleaved by the enzyme, and the fluorescent substance is released, which generates 460 nm emission light under the excitation of 360 nm light.
(§3) HDAC substrate was diluted with reaction buffer to 200M (reaction concentration of 20M), the HDAC enzyme was diluted to the appropriate concentration, then added different concentrations of the test compounds and acted at 37° C. 30 minutes, and then added the same volume of 2-times concentration substrate developing solution (developer), incubated at room temperature for 15 minutes.

HDAC2 = HDAC2 (Homo sapiens, UniProt Q92769); assay: as above; details: 37° C. 30 minutes;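 also: HDAC2 enzyme with an acetyl-lysine fluorescent substrate, then developer added, fluorescence read at excitation 360 nm and emission 460 nm, inhibition measured across several compound concentrations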
HDAC8 = molecular target: T1, HDAC8 (Homo sapiens, UniProt Q9BY41); assay: as above; details: 37° C. 30 minutes
T1 sequence (Q9BY41 1-377): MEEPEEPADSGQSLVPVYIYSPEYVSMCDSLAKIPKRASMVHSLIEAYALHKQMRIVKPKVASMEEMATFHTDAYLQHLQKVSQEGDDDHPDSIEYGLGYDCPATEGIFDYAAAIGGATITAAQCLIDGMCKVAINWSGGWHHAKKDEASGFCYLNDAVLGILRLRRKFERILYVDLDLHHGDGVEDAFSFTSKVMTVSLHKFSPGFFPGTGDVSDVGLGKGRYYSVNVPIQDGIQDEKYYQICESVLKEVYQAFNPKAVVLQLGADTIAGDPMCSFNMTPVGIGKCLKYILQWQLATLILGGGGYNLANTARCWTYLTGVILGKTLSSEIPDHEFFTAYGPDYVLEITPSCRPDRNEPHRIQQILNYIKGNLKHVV
Procedure: as §2, §3

HDAC7 = molecular target: T2, HDAC7 (Homo sapiens, UniProt Q8WUI4); assay: as above; details: HDAC7; 37° C. 30 minutes;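 also: fluorogenic deacetylation assay using acetyl-lysine substrate at 20 µM, enzyme and compound incubated 30 min at 37 °C, then developer added, fluorescence read at 360/460 nm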
T2 sequence (Q8WUI4 1-952): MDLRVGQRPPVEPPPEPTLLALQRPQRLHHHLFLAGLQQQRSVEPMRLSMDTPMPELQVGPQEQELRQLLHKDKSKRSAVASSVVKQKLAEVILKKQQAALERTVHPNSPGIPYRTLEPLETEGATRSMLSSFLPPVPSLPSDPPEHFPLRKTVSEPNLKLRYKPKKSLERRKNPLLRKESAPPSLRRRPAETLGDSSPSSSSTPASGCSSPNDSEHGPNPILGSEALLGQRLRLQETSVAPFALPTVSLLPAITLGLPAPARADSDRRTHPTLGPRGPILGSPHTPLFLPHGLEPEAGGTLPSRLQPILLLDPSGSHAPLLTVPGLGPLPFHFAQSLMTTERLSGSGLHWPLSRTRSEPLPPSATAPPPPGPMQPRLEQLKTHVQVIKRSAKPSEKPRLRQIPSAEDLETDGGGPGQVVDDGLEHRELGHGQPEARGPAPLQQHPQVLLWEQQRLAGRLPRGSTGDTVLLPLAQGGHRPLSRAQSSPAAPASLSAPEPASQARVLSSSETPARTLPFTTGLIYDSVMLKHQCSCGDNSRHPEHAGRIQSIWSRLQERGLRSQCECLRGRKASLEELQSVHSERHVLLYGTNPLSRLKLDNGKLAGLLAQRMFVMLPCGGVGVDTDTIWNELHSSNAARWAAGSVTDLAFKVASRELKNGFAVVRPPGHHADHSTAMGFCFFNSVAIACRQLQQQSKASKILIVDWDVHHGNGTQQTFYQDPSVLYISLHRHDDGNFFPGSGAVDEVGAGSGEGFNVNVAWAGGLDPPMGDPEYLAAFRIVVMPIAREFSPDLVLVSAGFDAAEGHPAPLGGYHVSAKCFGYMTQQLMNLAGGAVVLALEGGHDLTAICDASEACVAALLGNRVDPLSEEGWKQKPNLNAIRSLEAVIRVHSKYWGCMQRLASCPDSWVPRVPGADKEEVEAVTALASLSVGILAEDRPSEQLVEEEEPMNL

[1] = system: Bel-7402 (human hepatoma cells); assay: MTT cancer cell growth inhibition; assay type: cell-based; details: Homo sapiens, Bel-7402, 72 h, MTT, 72 hours incubation, Bel-7402 cells; read-out: GI50 Bel-7402
In short: (§1)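 Cells grown in DMEM or RPMI 1640 with 10% FBS were seeded at 1500/well and left overnight at 37° C., 5% CO2. Compounds at final 10^−5 to 10^−10 M were added in triplicate for 72 h. MTT was then added for 4 h, formazan dissolved in DMSO, and absorbance read at 570 nm to derive GI50.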

[2] = system: HCC827 (human non-small cell lung cancer cells); assay: MTT cancer cell growth inhibition; assay type: cell-based; details: Homo sapiens, HCC827, 72 h, MTT, 72 hours incubation, HCC827 cells; read-out: GI50 HCC827
In short: as §1

[3] = system: HT1080 (human fibrosarcoma cells); assay: MTT cancer cell growth inhibition; assay type: cell-based; details: Homo sapiens, HT-1080, 72 h, MTT, 72 hours incubation, read-out: GI50 HT1
In short: as §1

[4] = system: K562 (human leukemia cells); assay: MTT cancer cell growth inhibition; assay type: cell-based; details: Homo sapiens, K562, 72 h, MTT, 72 hours incubation, K562 cells; read-out: GI50 K562
In short: as §1

[5] = system: N-87 (human gastric cancer cells); assay: MTT cancer cell growth inhibition; assay type: cell-based; details: Homo sapiens, 72 h, MTT, 72 hours incubation, N-87 cells; read-out: GI50 N-87
In short: as §1

HDAC3 = HDAC3 (Homo sapiens, UniProt O15379); assay: HDAC biochemical activity measurement (fluorescent substrate deacetylation);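 also: fluorogenic acetyl-lysine substrate (20 µM) deacetylated by HDAC3, then developer added for 15 min at room temperature, release of fluorophore read at excitation 360 nm, emission 460 nm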
HDAC11 = molecular target: T3, HDAC11 (Homo sapiens, UniProt Q96DB2); assay: as above;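 also: HDAC11 enzyme acting on an acetyl-lysine fluorogenic substrate, then a developer frees the fluorophore, read at excitation 360 nm and emission 460 nm, IC50 over a compound dilution series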
T3 sequence (Q96DB2 1-347): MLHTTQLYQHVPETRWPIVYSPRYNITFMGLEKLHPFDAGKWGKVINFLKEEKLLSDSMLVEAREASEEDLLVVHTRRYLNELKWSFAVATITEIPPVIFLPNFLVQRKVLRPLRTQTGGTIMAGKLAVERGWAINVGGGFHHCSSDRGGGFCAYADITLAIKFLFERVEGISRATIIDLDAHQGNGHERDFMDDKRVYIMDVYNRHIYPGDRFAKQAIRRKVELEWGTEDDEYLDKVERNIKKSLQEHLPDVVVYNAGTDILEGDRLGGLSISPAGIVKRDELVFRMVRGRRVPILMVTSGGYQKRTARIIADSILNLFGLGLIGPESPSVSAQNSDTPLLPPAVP

[6] = HDAC1, 37° C. 30 minutes, read-out: IC50 HDAC1
[7] = Table 3, column C, read-out: IC50 HDAC1, C (six-membered ring with substituents)
[8] = read-out: IC50 HDAC3, HDAC3, 37° C. 30 minutes
[9] = read-out: IC50 HDAC11, HDAC11, 37° C. 30 minutes
[10] = Table 3, read-out: IC50 HDAC1, D (non-substituent)

HDAC1, sequence (Q13547 whole entry, species assumed): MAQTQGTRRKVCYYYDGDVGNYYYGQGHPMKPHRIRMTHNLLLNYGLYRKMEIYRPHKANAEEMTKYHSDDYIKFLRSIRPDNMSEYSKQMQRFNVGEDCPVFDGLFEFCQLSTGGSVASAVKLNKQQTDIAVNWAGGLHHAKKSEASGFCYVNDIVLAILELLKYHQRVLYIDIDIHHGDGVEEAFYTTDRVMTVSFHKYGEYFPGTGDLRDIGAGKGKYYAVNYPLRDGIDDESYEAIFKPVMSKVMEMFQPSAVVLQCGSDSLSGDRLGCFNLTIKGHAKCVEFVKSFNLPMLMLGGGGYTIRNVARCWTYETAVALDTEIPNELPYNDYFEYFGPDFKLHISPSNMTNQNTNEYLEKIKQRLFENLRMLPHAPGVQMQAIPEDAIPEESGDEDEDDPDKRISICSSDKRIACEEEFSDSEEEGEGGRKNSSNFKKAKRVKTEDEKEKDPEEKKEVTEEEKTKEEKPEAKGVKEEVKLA
HDAC3, sequence (O15379 whole entry, species assumed): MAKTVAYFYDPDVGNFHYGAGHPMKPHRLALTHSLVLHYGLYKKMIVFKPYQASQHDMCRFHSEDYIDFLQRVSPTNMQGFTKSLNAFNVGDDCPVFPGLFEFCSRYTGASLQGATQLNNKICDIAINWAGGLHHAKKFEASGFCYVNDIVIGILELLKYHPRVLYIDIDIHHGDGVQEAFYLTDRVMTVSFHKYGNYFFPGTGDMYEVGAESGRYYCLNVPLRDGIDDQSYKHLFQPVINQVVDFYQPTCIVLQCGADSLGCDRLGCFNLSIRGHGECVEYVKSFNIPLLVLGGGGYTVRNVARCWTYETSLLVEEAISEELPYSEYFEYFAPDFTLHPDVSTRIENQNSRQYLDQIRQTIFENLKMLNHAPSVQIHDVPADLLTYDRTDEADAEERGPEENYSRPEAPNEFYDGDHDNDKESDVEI
HDAC3, sequence (Q9Y618 395-489 partner limits assumed, species assumed): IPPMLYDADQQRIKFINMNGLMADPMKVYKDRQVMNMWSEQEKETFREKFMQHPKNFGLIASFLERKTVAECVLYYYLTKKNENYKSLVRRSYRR
HDAC2, sequence (Q92769 whole entry, species assumed): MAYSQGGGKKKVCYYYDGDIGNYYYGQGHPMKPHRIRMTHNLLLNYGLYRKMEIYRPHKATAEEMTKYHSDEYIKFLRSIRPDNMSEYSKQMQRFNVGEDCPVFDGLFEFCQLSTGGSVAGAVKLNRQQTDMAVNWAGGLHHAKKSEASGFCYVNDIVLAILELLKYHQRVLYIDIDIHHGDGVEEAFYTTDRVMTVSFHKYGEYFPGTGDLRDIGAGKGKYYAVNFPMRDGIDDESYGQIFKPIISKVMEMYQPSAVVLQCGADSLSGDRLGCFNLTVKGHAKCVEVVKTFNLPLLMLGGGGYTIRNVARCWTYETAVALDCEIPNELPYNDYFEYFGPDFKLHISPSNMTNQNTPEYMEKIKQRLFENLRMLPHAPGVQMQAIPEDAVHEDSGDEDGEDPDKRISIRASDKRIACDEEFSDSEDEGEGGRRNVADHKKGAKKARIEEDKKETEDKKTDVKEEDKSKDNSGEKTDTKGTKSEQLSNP

Structure (SMILES)	pIC50 (HDAC1; [6])	pIC50 (HDAC1; [7])	pIC50 (HDAC2)	pIC50 (HDAC8)	IC50 HDAC7 (HDAC7)	GI50 [1] [nM]	GI50 [2] [nM]	GI50 [3] [nM]	GI50 [4] [nM]	GI50 [5] [nM]	pIC50 (HDAC3; [8])	pIC50 (HDAC11; [9])	pIC50 (HDAC1; [10])	GI50 ([3]; HT1080 cells) [nM]	pIC50 (HDAC3)	pIC50 (HDAC11)
C/C=C1\NC(=O)c2nc(ccc2F)CNC(=O)C[C@@H](/C=C/CCSC(C)=O)OC(=O)[C@H](CCCCN)NC1=O [Compound 72]	7.19	7.19	6.48	6.34	no activity	61	61	60	33	61	6.87	6.56	–	–	–	–
C/C=C1\NC(=O)c2cccc(n2)CNC(=O)C[C@@H](/C=C/CCSC(C)=O)OC(=O)[C@H](CCCCN)NC1=O [Compound 15]	6.72	–	7.33	7.37	no activity	86	51	38700	26	29	7.24	6.97	6.72	–	–	–
C/C=C1\NC(=O)c2cc(F)cc(n2)CNC(=O)C[C@@H](/C=C/CCSC(C)=O)OC(=O)[C@H](CCCCNC(=O)OCC2c3ccccc3-c3ccccc32)NC1=O [Compound 76]	7.29	7.29	7.44	7.55	no activity	72	72	70	17	32	7.38	7.03	–	–	–	–
C/C=C1\NC(=O)c2cc(F)cc(n2)CNC(=O)C[C@@H](/C=C/CCSC(=O)CC)OC(=O)[C@H](C(C)C)NC1=O [Compound 46]	7.66	7.66	7.39	7.46	no activity	52	52	50	35	43	7.60	7.09	–	–	–	–
C/C=C1\NC(=O)c2cccc(n2)CNC(=O)C[C@@H](/C=C/CCSC(=O)CCC)OC(=O)[C@H](C(C)C)NC1=O [Compound 5]	7.13	–	7.28	7.17	no activity	93	55	70	32	37	7.31	6.95	7.13	–	–	–
C/C=C1\NC(=O)c2cccc(n2)CNC(=O)C[C@@H](/C=C/CCSC(C)=O)OC(=O)[C@H](CCCCNC(=O)OCC2c3ccccc3-c3ccccc32)NC1=O [Compound 16]	6.74	–	7.25	7.21	no activity	91	49	1300	25	27	7.31	7.02	6.74	–	–	–
C/C=C1\NC(=O)c2cc(F)cc(n2)CNC(=O)C[C@@H](/C=C/CCSC(C)=O)OC(=O)[C@H](CC)NC1=O [Compound 58]	7.49	7.49	7.68	7.29	no activity	49	49	40	26	61	7.54	7.01	–	–	–	–
C/C=C1\NC(=O)c2cc(F)cc(n2)CNC(=O)C[C@@H](/C=C/CCSC(=O)CCCCCCC)OC(=O)[C@H](CC)NC1=O [Compound 55]	7.89	7.89	7.47	7.37	no activity	81	81	80	36	55	7.46	7.08	–	–	–	–

Second part, the molecule after the results:

pIC50 (HDAC1; [6])	pIC50 (HDAC1; [7])	pIC50 (HDAC2)	pIC50 (HDAC8)	IC50 HDAC7 (HDAC7)	GI50 [1] [nM]	GI50 [2] [nM]	GI50 [3] [nM]	GI50 [4] [nM]	GI50 [5] [nM]	pIC50 (HDAC3; [8])	pIC50 (HDAC11; [9])	pIC50 (HDAC1; [10])	GI50 ([3]; HT1080 cells) [nM]	pIC50 (HDAC3)	pIC50 (HDAC11)	Structure (SMILES)
7.21	–	7.39	7.55	no activity	28	28	–	37	83	–	–	–	80	7.29	7.07	C/C=C1\NC(=O)c2nc(ccc2SC)CNC(=O)C[C@@H](/C=C/CCSC(=O)CCCCCCC)OC(=O)[C@H](C(C)C)NC1=O [Compound 147]
7.04	–	7.44	7.74	no activity	51	49	–	41	11	–	–	–	50	7.21	7.07	C/C=C1\NC(=O)c2ccc(SC)c(n2)CNC(=O)C[C@@H](/C=C/CCSC(=O)CCCCCCC)OC(=O)[C@H](Cc2ccccc2)NC1=O [Compound 191]
7.13	–	7.62	7.47	no activity	51	51	50	29	49	–	–	–	–	7.47	7.00	C/C=C1\NC(=O)c2nc(ccc2F)CNC(=O)C[C@@H](/C=C/CCSC(=O)CCCCCCC)OC(=O)[C@H](CC)NC1=O [Example 54]
7.34	–	7.57	7.43	no activity	83	83	80	16	64	–	–	–	–	7.43	7.10	C/C=C1\NC(=O)c2ccc(F)c(n2)CNC(=O)C[C@@H](/C=C/CCSC(=O)CCCCCCC)OC(=O)[C@H](C)NC1=O [Example 62]
7.08	–	7.49	7.68	no activity	41	46	–	13	31	–	–	–	10	7.59	7.01	C/C=C1\NC(=O)c2nc(ccc2SCCC)CNC(=O)C[C@@H](/C=C/CCSC(=O)CCCCCCC)OC(=O)[C@H](CC)NC1=O [Compound 174]
